{
  "source": "patent US5032573A",
  "about": "“Homologs of aprotinin produced from a recombinant host, process, expression vector and recombinant host therefor and pharmaceutical use thereof” (Bayer Aktiengesellschaft, priority 1989, dated 1991)",
  "assay_type_in_all_cases": "biochemical",
  "key": {"porcine trypsin [1]": {"biological_target": "T1, porcine trypsin (Sus scrofa, UniProt P00761)", "T1 construct": "purchased Merck 8350", "T1 sequence (P00761 9-231)": "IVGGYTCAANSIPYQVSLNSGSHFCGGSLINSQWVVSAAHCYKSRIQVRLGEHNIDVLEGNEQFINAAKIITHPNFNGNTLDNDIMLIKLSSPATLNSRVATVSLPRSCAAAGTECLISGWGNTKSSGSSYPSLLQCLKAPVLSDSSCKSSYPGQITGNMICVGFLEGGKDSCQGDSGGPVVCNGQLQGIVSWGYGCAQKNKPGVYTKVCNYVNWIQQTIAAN", "test": "Trypsin inhibition assay with Pyr-Glu-Gly-Arg-pNA as the substrate", "procedure": "(§1) Glu-52-Aprotinin obtained after cleavage with BrCN was compared with authentic aprotinin for its inhibitory activity against porcine trypsin. Both substrates Pyrglu-Gly-Arg-pNA and Benzoyl-Arg-pNa were used for trypsin determination.\n(§2) The stock solution for aprotinin was 1 μg/ml, and for Glu-52-aprotinin 0.6 μg/ml. 0-100-200-300-400-500 μl of this stock solutions were used in the test with Benzol-Arg-pNA. In the test with Pyrglu-Gly-Arg-pNA,0-3-6-9-12-15 μl were used.\n(§3) Inhibition of trypsin was determined by means of either the substrate benzoyl-DL-arginine-p-nitroanilide (Merck 1670) or pyroglutamyl-glycyl-arginine-p-nitroanilide, which was synthesized from commercially available pyroglutamyl-glycine (SENN 6886) and arginine-p-nitroanilide×HBr (SENN 9123) by means of the dicyclohexyl carbodiimide condensation method. This substrate is also sold under the designation S-2444 by KABI as an urokinase substrate.\n(§4) The former has the advantage of giving a linear response to the amount of Aprotinin in the sample, but has a low sensitivity. The latter one has a high sensitivity, but due to the dissociation of the aprotinin-trypsin-complex at those low concentrations, the dose-response-curve is non linear.\n(§5) The buffer for the measurement of trypsin and trypsin inhibitors is 0.2M Tris, pH 8.0 containing 0.01M CaCl2 and 0.05% Tween 80®.\n(§6) The determinations can be performed in any spectral photometer which allows readings of optical densities (ODs) at 400 nm. For fully automated measurements, the photometers have to be equipped with a micro processor or must be interfaced with a suitable personal computer.\n(§7) Disposable 1 cm semi micro plastic cuvettes are used for all assays. ODs are read in time intervals of 1 minute over 8 cycles at ambient temperature. The average increase of OD per minute is arbitrarily taken as the activity unit.\n(§8) For inhibition assays, porcine trypsin (Merck 8350) solution (in 0.001N HCl/50% glycerol) is mixed with the inhibitor sample, adjusted to 500 μl with buffer and incubated for 10 minutes at ambient temperature. The reaction is initiated by the addition of substrate solution. Inhibitory activities are taken from a calibration curve or automatically calculated by computer programs developed especially for this purpose. […]"}, "porcine trypsin [2]": {"biological_target": "T1, porcine trypsin", "test": "Trypsin inhibition assay with Benzoyl-Arg-pNA as the substrate", "settings": "for ΔE/10 minutes: control without inhibitor 0.91", "procedure": "as §1, §2, §3, §4, §5, §6, §7, §8"}, "cationic human Trypsin": {"biological_target": "cationic human Trypsin (Homo sapiens, UniProt P07477)", "test": "Kinetic studies, Ki by the method of Empie and Laskowski", "procedure": "(§9) The Ki values were determined by the method of M. W. Empie and M. Laskowski, Jr., Biochem. 21, 2274 (1982)."}, "anionic human Trypsin": {"biological_target": "anionic human Trypsin (Homo sapiens, UniProt P07478)", "sequence (P07478 24-247)": "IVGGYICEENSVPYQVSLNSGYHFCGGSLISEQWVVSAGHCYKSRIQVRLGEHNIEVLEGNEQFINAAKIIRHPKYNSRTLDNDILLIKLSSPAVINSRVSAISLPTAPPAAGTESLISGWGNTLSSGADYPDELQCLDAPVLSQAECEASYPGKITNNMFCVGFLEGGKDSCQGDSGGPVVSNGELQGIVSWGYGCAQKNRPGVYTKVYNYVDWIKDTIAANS", "test": "Kinetic studies, Ki by the method of Empie and Laskowski", "procedure": "as §9"}, "[3]": {"settings": "substrate Pyr-Glu-Gly-Arg-pNA, amount inhibitor per assay 9 ng, control without inhibitor 0.85 (aprotinin), 0.84 (Glu-52-aprotinin)"}, "[4]": {"settings": "substrate Benzoyl-Arg-pNA, amount inhibitor per assay 300 ng"}},
  "data": [
    {"substance": "Aprotinin [reference compound]", "values": [
      {"measurement": "ΔE/10 minutes", "setting": "porcine trypsin [1]; substrate Pyr-Glu-Gly-Arg-pNA, amount inhibitor per assay 3 ng, control without inhibitor 0.85", "result": 0.62},
      {"measurement": "ΔE/10 minutes", "setting": "porcine trypsin [1]; substrate Pyr-Glu-Gly-Arg-pNA, amount inhibitor per assay 6 ng, control without inhibitor 0.85", "result": 0.39},
      {"measurement": "ΔE/10 minutes", "setting": "porcine trypsin [1]; [3]", "result": 0.29},
      {"measurement": "ΔE/10 minutes", "setting": "porcine trypsin [1]; substrate Pyr-Glu-Gly-Arg-pNA, amount inhibitor per assay 12 ng, control without inhibitor 0.85", "result": 0.18},
      {"measurement": "ΔE/10 minutes", "setting": "porcine trypsin [1]; substrate Pyr-Glu-Gly-Arg-pNA, amount inhibitor per assay 15 ng, control without inhibitor 0.85", "result": 0.13},
      {"measurement": "ΔE/10 minutes", "setting": "porcine trypsin [2]; substrate Benzoyl-Arg-pNA, amount inhibitor per assay 100 ng", "result": 0.76},
      {"measurement": "ΔE/10 minutes", "setting": "porcine trypsin [2]; substrate Benzoyl-Arg-pNA, amount inhibitor per assay 200 ng", "result": 0.57},
      {"measurement": "ΔE/10 minutes", "setting": "porcine trypsin [2]; [4]", "result": 0.39},
      {"measurement": "ΔE/10 minutes", "setting": "porcine trypsin [2]; substrate Benzoyl-Arg-pNA, amount inhibitor per assay 400 ng", "result": 0.08},
      {"measurement": "ΔE/10 minutes", "setting": "porcine trypsin [2]; substrate Benzoyl-Arg-pNA, amount inhibitor per assay 500 ng", "result": 0.00}
    ]},
    {"substance": "Arg-15-Glu-52-aprotinin", "values": [
      {"measurement": "Ki", "setting": "cationic human Trypsin", "result": "< 0.01", "unit": "nM"},
      {"measurement": "Ki", "setting": "anionic human Trypsin", "result": "< 0.01", "unit": "nM"}
    ]},
    {"substance": "Glu-52-aprotinin", "values": [
      {"measurement": "equilibrium constants of the trypsin-inhibitor complexes compared with aprotinin", "setting": "porcine trypsin [1]; concluded from the trypsin inhibition dose-response curves", "result": "in the same order of magnitude"},
      {"measurement": "trypsin inhibitory activity, dose-response curve compared with aprotinin", "setting": "porcine trypsin [1]; substrate Pyr-Glu-Gly-Arg-pNA, FIG. 11", "result": "identical dose-response curves"},
      {"measurement": "ΔE/10 minutes", "setting": "porcine trypsin [1]; substrate Pyr-Glu-Gly-Arg-pNA, amount inhibitor per assay 1.8 ng, control without inhibitor 0.84", "result": 0.67},
      {"measurement": "ΔE/10 minutes", "setting": "porcine trypsin [1]; substrate Pyr-Glu-Gly-Arg-pNA, amount inhibitor per assay 3.6 ng, control without inhibitor 0.84", "result": 0.56},
      {"measurement": "ΔE/10 minutes", "setting": "porcine trypsin [1]; substrate Pyr-Glu-Gly-Arg-pNA, amount inhibitor per assay 5.4 ng, control without inhibitor 0.84", "result": 0.47},
      {"measurement": "ΔE/10 minutes", "setting": "porcine trypsin [1]; substrate Pyr-Glu-Gly-Arg-pNA, amount inhibitor per assay 7.2 ng, control without inhibitor 0.84", "result": 0.32},
      {"measurement": "ΔE/10 minutes", "setting": "porcine trypsin [1]; [3]", "result": 0.28},
      {"measurement": "active molecules contained", "setting": "porcine trypsin [2]; concluded from the trypsin inhibition dose-response curves against authentic aprotinin", "result": "~100", "unit": "%"},
      {"measurement": "trypsin inhibitory activity, dose-response curve compared with aprotinin", "setting": "porcine trypsin [2]; substrate Benzoyl-Arg-pNA, FIG. 11", "result": "identical dose-response curves"},
      {"measurement": "ΔE/10 minutes", "setting": "porcine trypsin [2]; substrate Benzoyl-Arg-pNA, amount inhibitor per assay 60 ng", "result": 0.77},
      {"measurement": "ΔE/10 minutes", "setting": "porcine trypsin [2]; substrate Benzoyl-Arg-pNA, amount inhibitor per assay 120 ng", "result": 0.68},
      {"measurement": "ΔE/10 minutes", "setting": "porcine trypsin [2]; substrate Benzoyl-Arg-pNA, amount inhibitor per assay 180 ng", "result": 0.58},
      {"measurement": "ΔE/10 minutes", "setting": "porcine trypsin [2]; substrate Benzoyl-Arg-pNA, amount inhibitor per assay 240 ng", "result": 0.44},
      {"measurement": "ΔE/10 minutes", "setting": "porcine trypsin [2]; [4]", "result": 0.30}
    ]}
  ]
}
